Laboratory results taken from article PMC12583704 (Signal Transduction and Targeted Therapy, 2025).
Values joined by “and” are separate entries in the source; they are usually repeats but may differ in a detail not shown here. Equal values may be shown once.

Test: Phase 1 study NCT03594422: adverse events graded by NCI CTCAE v4.03
Assay type: in vivo, human
Method: Part 1 was a dose-escalation study to determine the recommended phase 2 dose (RP2D) in solid tumors. […] The initial design was a 3 + 3 dose escalation from 20 mg, but the protocol was amended to randomly enroll and assign patients to starting doses of 30, 40, and 50 mg on the basis of safety data acquired in the CML trial.[20] […] An interactive web response system was used for randomization. Part 2 was a nonrandomized study focusing on patients with SDH-deficient GISTs. […] On the basis of preliminary data from adult patients, adolescent patients with advanced wild-type GISTs were also included in Part 2. The dosage for adolescents was adjusted according to their body weights.
AEs were evaluated at each follow-up visit: on Days 1, 8, 15, and 22 during Cycles 1 and 2; and on Days 1 and 15 in Cycle 3 and all subsequent cycles, up to 30 days after the final dose. All AEs were graded according to the National Cancer Institute Common Terminology Criteria for Adverse Events v4.03. Clinical laboratory investigations for routine blood examinations and serum chemistry parameters were performed during every cycle (on Day 1), during Cycles 1 and 2 (on Days 8, 15, and 22), and 30 days after the last dose of treatment. Urinalysis, coagulation, cardiac troponin I/T, lipase, amylase, and electrocardiographic evaluations were conducted at baseline; during Cycles 1 and 2 (on Days 1 and 15); during Cycles 3, 5, 7, and 9; every three cycles after Cycle 9 (on Day 1); and 14 days after the last dose of treatment. All patients underwent tumor imaging for response assessment via computed tomography or magnetic resonance imaging at screening and every two cycles (8 weeks) until progression or discontinuation. Target and nontarget lesions were assessed per the Response Evaluation Criteria in Solid Tumors version 1.1 (RECIST v1.1).

## Cc1ccc(C(=O)Nc2ccc(CN3CCN(C)CC3)c(C(F)(F)F)c2)cc1C#Cc1cnc2[nH]ncc2c1 [Olverembatinib, 3-[(1H-pyrazolo[3,4-b]pyridin-5-yl)ethynyl]-4-methyl-N-{4-[(4-methylpiperazin-1-yl)methyl]-3-(trifluoromethyl)phenyl]benzamide]
50 mg (n = 16), Grade 3-5
  TRAE: Hypoalbuminemia: 0 n (%)
  TRAE: Leukocyte count increased: 0 n (%)
  TRAE: Melanocytic nevus: 0 n (%)
  TRAE: Neutrophil count increased: 0 n (%)
  TRAE: Platelet count increased: 0 n (%)
  TRAE: Pyrexia: 0 n (%)
Total (n = 66), Any grade
  TEAE: Abdominal pain: 15 (22.7) n (%)
  TEAE: Alanine aminotransferase increased: 25 [37.9%] n (%) and 25 (37.9) n (%)
  TEAE: Anemia: 31 [47.0%] n (%) and 31 (47.0) n (%)
  TEAE: Aspartate aminotransferase increased: 31 [47%] n (%) and 31 (47.0) n (%)
  TEAE: C-reactive protein increased: 15 (22.7) n (%)
  TEAE: Constipation: 27 [40.9%] n (%) and 27 (40.9) n (%)
  TEAE: Fatigue: 20 [30.3%] n (%) and 20 (30.3) n (%)
  TEAE: Hyperuricemia: 31 (47.0) n (%)
  TEAE: Hypoalbuminemia: 14 (21.2) n (%)
  TEAE: Leukocyte count increased: 32 [48.5%] n (%) and 32 (48.5) n (%)
  TEAE: Melanocytic nevus: 17 (25.8) n (%)
  TEAE: Neutrophil count increased: 25 [37.9%] n (%) and 25 (37.9) n (%)
  TEAE: Pyrexia: 28 [42.4%] n (%) and 28 (42.4) n (%)
  TEAEs: 66 (100.0%) n (%) and 66 (100.0) n (%)
  TRAE: ALT increased: 20 (30.3) n (%)
  TRAE: AST increased: 23 (34.8) n (%)
  TRAE: Anemia: 9 (13.6) n (%)
  TRAE: Blood creatinine increased: 9 (13.6) n (%)
  TRAE: Constipation: 23 (34.8) n (%)
  TRAE: Fatigue: 18 (27.3) n (%)
  TRAE: Hypoalbuminemia: 10 (15.2) n (%)
  TRAE: Leukocyte count increased: 27 (40.9) n (%)
  TRAE: Melanocytic nevus: 15 (22.7) n (%)
  TRAE: Neutrophil count increased: 22 (33.3) n (%)
  TRAE: Platelet count increased: 7 (10.6) n (%)
  TRAE: Pyrexia: 19 (28.8) n (%)
Total (n = 66), Grade 3-5
  TEAE: Abdominal pain: 1 (1.5) n (%)
  TEAE: Alanine aminotransferase increased: 2 (3.0) n (%)
  TEAE: Anemia: 4 (6.1) n (%)
  TEAE: Aspartate aminotransferase increased: 2 (3.0) n (%)
  TEAE: C-reactive protein increased: 0 n (%)
  TEAE: Constipation: 0 n (%)
  TEAE: Fatigue: 1 (1.5) n (%)
  TEAE: Hyperuricemia: 1 (1.5) n (%)
  TEAE: Hypoalbuminemia: 0 n (%)
  TEAE: Leukocyte count increased: 0 n (%)
  TEAE: Melanocytic nevus: 0 n (%)
  TEAE: Neutrophil count increased: 0 n (%)
  TEAE: Pyrexia: 0 n (%)
  TEAEs: 26 (39.4) n (%)
  TRAE: ALT increased: 1 (1.5) n (%)
  TRAE: AST increased: 1 (1.5) n (%)
  TRAE: Anemia: 0 n (%)
  TRAE: Blood creatinine increased: 0 n (%)
  TRAE: Constipation: 0 n (%)
  TRAE: Fatigue: 1 (1.5) n (%)
  TRAE: Hypoalbuminemia: 0 n (%)
  TRAE: Leukocyte count increased: 0 n (%)
  TRAE: Melanocytic nevus: 0 n (%)
  TRAE: Neutrophil count increased: 0 n (%)
  TRAE: Platelet count increased: 0 n (%)
  TRAE: Pyrexia: 0 n (%)
All 66 patients
  patients who experienced grade ≥3 TRAEs: 13.6%
  patients who experienced treatment-related AEs (TRAEs): 93.9%
  treatment-related serious AEs: 7.6%
All patients, Population, N 68
  Treatment-related SAE: 5 (7.4) n (%)
  Treatment-related SAE: Anemia: 1 (1.5) n (%)
  Treatment-related SAE: Arteriosclerosis coronary artery: 1 (1.5) n (%)
  Treatment-related SAE: Intestinal obstruction: 2 (2.9) n (%)
  Treatment-related SAE: Leukemoid reaction: 1 (1.5) n (%)
Based on safety data from a previous phase 1 study and randomization in Part 1
  RP2D: 40 mg QOD
In vivo
  treatment discontinuation because of AEs: no patients discontinued treatment because of AEs
